This is an account of results in patent US9084806B2, “Hypoxia-responsive nanoparticle for therapy and imaging of hypoxia-involving diseases” (RESEARCH & BUSINESS FOUNDATION SUNGKYUNKWAN UNIVERSITY, priority 2012, dated 2015).

The conditions of data set [1]: cited from earlier work.
The test system of a further data set is SCC7 cells. The data set is described as follows: In vitro cytotoxicity, MTT assay. Particulars: 24 h, various concentrations. Type of data set: cell-based. The protocol:
To evaluate in vitro cytotoxicity of HR-NPs, they were exposed to the SCC7 cells for 24 h at 37° C., after which the cell viability was measured using the MTT assay (FIG. 6a).
SCC7 (squamous carcinoma) cell lines, obtained from the American Type Culture Collection (Rockville, Md., USA), were cultured in RPMI 1640 medium (Gibco, Grand Island, N.Y., USA) containing 10% (v/v) fetal bovine serum and 1% (w/v) penicillin-streptomycin at 37° C. in a humidified 5% CO2-95% air atmosphere. The cells were seeded at a density of 1 104 cells/well in 96-well flat-bottomed plates. After one day of growth, the cells were washed twice with a PBS (pH 7.4) and incubated for 24 h with various concentrations of free DOX or DOX-HR-NPs (HR-NP8 and HR-NP11) under the hypoxic or normoxic condition. The cells were then washed twice with a PBS (pH 7.4) and the fresh culture medium was added. Twenty microliters of 3-(4,5-dimethylthiazol-2-yl)-2,5-diphenyltetrazolium bromide solution (5 mg/ml in PBS) were added to each well, and the cells were incubated for an additional 4 h at 37° C. Subsequently, the medium was removed, and the cells were dissolved in DMSO. The absorbance at 570 nm was measured using a microplate reader (BioTek, Seoul, Korea).

In another data set the test system is SCC7 cancer xenografts. The data set is described as follows: In vivo antitumor efficacy. The arrangement: species or system mice. The conditions noted are these: DOX dose 5 mg/kg, once every three days. The method, then: To evaluate the anti-tumor efficacy of HR-NPs, SCC7 tumor bearing mice were prepared, as previously described. Mice were divided into three groups: (i) normal saline (ii) free DOX at 5 mg/kg, and (iii) DOX-HR-NP11 at 5 mg DOX/kg. When tumors reached 8 mm in diameter, each sample was injected once every three days. Tumor volumes were calculated as a×b^2/2, were a was the largest and b the smallest diameter. The statistical significance of differences (p<0.05) between groups tested was determined using one-way ANOVA test.

Entries after “also recorded” stand apart in the source; their conditions may differ.

In the case of `Nc1ncc[nH]1` [2-aminoimidazole], in data set [1], the solubility in water result was “readily dissolving in water; also recorded: highly water-soluble”.
Regarding `O=[N+]([O-])c1ncc[nH]1` [2-nitroimidazole], in data set [1], the solubility in water entry was “poorly soluble in water”.
Consider `COc1cccc2c1C(=O)c1c(O)c3c(c(O)c1C2=O)C[C@@](O)(C(=O)CO)C[C@@H]3O[C@H]1C[C@H](N)[C@H](O)[C@H](C)O1` [free DOX, doxorubicin], for which the “cytotoxicity in the hypoxic condition compared with the normoxic condition” value with SCC7 cells is recorded as “comparable”. Also, in the data set with SCC7 cancer xenografts, the “change in tumor volume” value is “considerable increase”.
